Measured values published in patent US9815843B2, “Compound, photosensitive resin composition comprising the same, and color filter” (Samsung SDI Co., Ltd., priority 2015, dated 2017).

Test: Solubility measurement in dilution solvent (PGMEA)
Type: physicochemical
Details: 0.5 g compound, 25° C., 100 rpm, one hour
Protocol: A dilution solvent (PGMEA) is respectively added to 0.5 g of the compounds according to Synthesis Examples 8 to 17 and Comparative Synthesis Examples 1 and 2, and each solution is stirred with a mixrotar (MIXROTAR VMR-5, Iuchi Seieido Co., Ltd.) at 25° C. and 100 rpm for one hour.
Reference for Solubility Evaluation
Greater than or equal to 10 wt % of a compound (a solute) is dissolved based on the total amount of a dilution solvent: ∘
Greater than or equal to 5 wt % but less than 10 wt % of a compound (a solute) is dissolved based on the total amount of a dilution solvent: Δ
Less than 5 wt % of a compound (a solute) is dissolved based on the total amount of a dilution solvent: X

Compound: CCCCCOc1c(Cl)c(Cl)c2c(c1Cl)C1=NC/2=N\c2c3c(Cl)c(Cl)c(OCCCCC)c(Cl)c3c3[n]2[Zn][n]2/c(c4c(Cl)c(Cl)c(OCCCCC)c(Cl)c4/c2=N/1)=N\C1=NC(=N\3)/c2c(Cl)c(Cl)c(OCCCCC)c(Cl)c21 [Comparative Synthesis Example 2]
- Solubility: Δ (Greater than or equal to 5 wt % but less than 10 wt % of a compound (a solute) is dissolved based on the total amount of a dilution solvent)
